Experimental data from patent US10028956B2, “Methods of treating various cancers using an AXL/cMET inhibitor in combination with other agents” (Ignyta, Inc., priority 2013, dated 2018).

How the values were obtained:
298 kinases = experiment: Kinome selectivity against 298 kinases; format: biochemical
PK in rat = conditions: in vivo
PK in monkey = conditions: in vivo
[1] = test system: NIH3T3/AXL tumor xenografts; experiment: Anti-tumor efficacy in NIH3T3/AXL tumor xenografts; format: in vivo, mice; conditions: 0.3, 1 or 10 mg/kg PO qd, all doses tested
Protocol: The engineered NIH3T3/AXL cell line was generated as follows. The human AXL cDNA was subcloned into the pQCXIP vector and the sequences were confirmed by sequencing at Children's Hospital of Philadelphia. PT67 cells (5×10^5) in 4 mL DMEM+10% FBS were seeded in each well of 6-well plates (Cat^#353046, Becton Dickinson, Franklin Lakes, N.J.) and cultured at 37° C. in a humidified incubator with 5% CO2 overnight. The cells were transfected with 2 μg of pQCXIP-AXL with Lipofectamine™ 2000 (Cat#52887, Invitrogen, Carlsbad, Calif.) transfection reagent per the manufacturer's protocol. In brief, the DNA in 500 μL culture media was mixed with 500 μL media containing 20 μL Lipofectamine™ 2000 transfection reagent, and the mixture was incubated at room temperature for 20 minutes. […]
NIH3T3/AXL cells were collected and resuspended in DMEM medium at density of 5×10^7/mL. […] The mice were monitored and the tumor sizes were measured. […] The length (L) and width (W) of each tumor were measured with a vernier caliper and the mouse body weight was determined every two to three days. Tumor volumes were calculated with the formula of 0.5236*L*W*(L+W)/2. […] Plasma and tumor samples were obtained at 2 hours post final dose at each dose level, and the compound levels in plasma and tumor lysates were measured by LC-MS/MS.

[2] = test system: MDA-MB-231-Leu orthotopic breast tumor xenografts; experiment: Metastases of MDA-MB-231-Leu orthotopic breast tumor xenografts; format: in vivo, mice; conditions: oral administration, 10 and 30 mg/kg qd
Protocol: The human breast cancer cell line MDA-MB-231-Leu-D3H2LN-luciferase expressing cell line was purchased from Caliper Life Sciences. This tumor cell line was generated by stable transfection of the firefly luciferase gene expressed from the SV40 promoter and further selected for its metastatic potential upon isolation from a spontaneous lymph node metastasis of MDA-MB-231-Luc cells in immune-compromised mice. The cells were grown in DMEM medium supplemented with 10% fetal bovine serum (FBS, Cat^# SH3007003, Hyclone, Logan, Utah). D-Luciferin firefly/potassium salt (Cat. # L-8220) was purchased from Biosynth International, Inc., Itasca, Ill.). Female nu/nu mice (6 to 8 weeks old) were purchased from Harlan Laboratories. […] Mouse body weights were measured on day 0 and then every 7 days, and bioluminescence image analysis performed at the end of the study using the Caliper Life Sciences (Xenogen) Spectrum imager as detailed in FIG. 6. Images of the primary tumor and potential metastatic tumors in lymph nodes were taken weekly, starting on day 7 post cell implantation. Prior to image acquisition, each mouse were give a 0.2 ml intra-peritoneal injection of D-Luciferin firefly/potassium salt and images were acquired 6-10 minutes post substrate administration. […] Counts were converted to average radiance or mean photon flux; expressed as photons per second (p/s). […]

[3] = Tolerability / body weight in the xenograft studies; format: in vivo; conditions: in all of the above studies
[4] = intravenous, 1 mg/kg i.v. and 3 mg/kg p.o.
[5] = intravenous, 0.5 mg/kg i.v. and p.o.

## COc1cc2nccc(Oc3ccc(NC(=O)c4cn(C(C)C)c(=O)n(-c5ccc(F)cc5)c4=O)cc3F)c2cc1OC [CEP-40783, 3-(4-Fluorophenyl)-1-isopropyl-2,4-dioxo-1,2,3,4-tetrahydropyrimidine-5-carboxylic acid [4-(6,7-dimethoxyquinolin-4-yloxy)-3-fluorophenyl]-amide]
298 kinases
  S90 (fraction of kinases showing >90% inhibition at 1 μM): 0.04
PK in rat; 1 mg/kg i.v. and 3 mg/kg p.o.
  Cmax: 593 ng/mL
PK in rat; [4]
  Vd: 2.6 L/kg
  clearance: 1.4 mL/min/kg
PK in rat; iv, 1 mg/kg i.v., read-out: t1/2 i.v. (converted)
  half-life: 21.5 h
PK in rat; oral, 1 mg/kg i.v. and 3 mg/kg p.o.
  bioavailability: 57%
PK in rat; po, 3 mg/kg p.o.
  AUC(0-t): 16300 ng·h/mL
PK in monkey; 0.5 mg/kg i.v. and p.o.
  Cmax: 260 ng/mL
PK in monkey; [5]
  Vd: 1.2 L/kg
  clearance: 2.2 mL/min/kg
PK in monkey; iv, 0.5 mg/kg i.v., read-out: t1/2 i.v. (converted)
  half-life: 14.5 h
PK in monkey; oral, 0.5 mg/kg i.v. and p.o.
  bioavailability: 77%
PK in monkey; po, 0.5 mg/kg p.o.
  AUC(0-t): 3030 ng·h/mL
[1]
  anti-tumor efficacy (tumor volume): complete tumor regressions
[2]
  spontaneous lymph node and pulmonary metastatic tumor burden: efficacious in reducing spontaneous lymph node and pulmonary metastatic tumor burden
[3]
  tolerability, body weight: well tolerated with no compound-related body weight loss
